Test results reported in patent US20210059251A1, “PLANT GROWTH REGULATOR COMPOUNDS” (SYNGENTA PARTICIPATIONS AG, priority 2018, published 2021).

Each compound was assayed on corn leaf (assay: Dark induced senescence of corn leaf (leaf discs)). Details: 23° C., 8 days, 0.5% DMSO, image analysis, lower value = higher senescence induction potency.
Type: cell-based, Corn (variety Multitop)
Description: It is known that strigolactones regulate (accelerate) leaf senescence, potentially through D14 receptor signaling. Compounds of the present invention (I) were compared to structurally-related compounds (Z) in a corn leaf dark induced senescence assay. Corn plants of variety Multitop were grown in a greenhouse with relative 75% humidity and at 23-25° C. for 6 weeks. 1.4 cm diameter leaf discs were placed into 24-well plates containing a test compounds in a concentration gradient (100 μM-0.0001 μM) at a final concentration of 0.5% DMSO. Each concentration was tested in 12 replicates. Plates were sealed with seal foil. The foil was pierced to provide gas exchange in each well. The plates were placed into the completely dark climatic chamber. Plates were incubated in the chamber with 75% humidity and at 23° C. for 8 days. On days 0, 5, 6, 7 and 8 photographs were taken of each plate, and image analysis conducted with a macro developed using the ImageJ software. The image analysis was used to determine the concentration at which 50% senescence was achieved (IC50), see Table 7. The lower the value, the higher senescence induction potency.

`CC1=CC(O/C=C2/C(=O)N(c3nccs3)C3c4ccccc4CC23)OC1=O` (stereo not shown) [Compound Z2, reference compound] was tested. Which “IC50 (concentration at which 50% senescence was achieved)” value did it give?
Its value is “inactive”.

For `CC1=C(C)C(O/C=C2/C(=O)N(c3nccs3)C3c4ccccc4CC23)OC1=O` (stereo not shown) [Compound Z2-Me, reference compound], which “IC50 (concentration at which 50% senescence was achieved)” value is on record?
Its value is “inactive”.

Same assay, conditions: Zea mays, foliar, 192 h, 23° C., 8 days, 0.5% DMSO, image analysis, lower value = higher senescence induction potency, read-out: IC50 (concentration at which 50% senescence was achieved)

With `CC(=O)N1C(=O)/C(=C/OC2C=C(C)C(=O)O2)C2c3ccccc3CC21` (stereo not shown) [Compound I-1, (1E)-3-acetyl-1-[(4-methyl-5-oxo-2H-furan-2-yl)oxymethylene]-4,8b-dihydro-3aH-indeno[2,1-b]pyrrol-2-one] as the compound, how does the IC50 read?
Its IC50 is 64 nM.

With `CC(=O)N1C(=O)/C(=C/OC2OC(=O)C(C)=C2C)C2c3ccccc3CC21` (stereo not shown) [Compound I-5, (1E)-3-acetyl-1-[(3,4-dimethyl-5-oxo-2H-furan-2-yl)oxymethylene]-4,8b-dihydro-3aH-indeno[2,1-b]pyrrol-2-one] as the compound, how does the IC50 read?
Its IC50 is 24 nM.

For `CC1=CC(O/C=C2/C(=O)N(c3nccs3)C3Cc4ccccc4C23)OC1=O` (stereo not shown) [Compound I-9, (1E)-1-[(4-methyl-5-oxo-2H-furan-2-yl)oxymethylene]-3-thiazol-2-yl-4,8b-dihydro-3aH-indeno[2,1-b]pyrrol-2-one], which IC50 is on record?
The IC50 was 126 nM.

`CC1=CC(O/C=C2/C(=O)N(c3ccccc3)C3Cc4ccccc4C23)OC1=O` (stereo not shown) [Compound I-10, (1E)-1-[(4-methyl-5-oxo-2H-furan-2-yl)oxymethylene]-3-phenyl-4,8b-dihydro-3aH-indeno[2,1-b]pyrrol-2-one] was tested. Which IC50 did it give?
The IC50 was 107 nM.

With `CC1=CC(O/C=C2/C(=O)N(CC#N)C3Cc4ccccc4C23)OC1=O` (stereo not shown) [Compound I-12-E, 2-[(1E)-1-[(4-methyl-5-oxo-2H-furan-2-yl)oxymethylene]-2-oxo-4,8b-dihydro-3aH-indeno[2,1-b]pyrrol-3-yl]acetonitrile] as the compound, how does the IC50 read?
The IC50 was 1550 nM.

Which IC50 does the source give for `CC1=C(C)C(O/C=C2/C(=O)N(c3nccs3)C3Cc4ccccc4C23)OC1=O` (stereo not shown) [Compound I-13, (1E)-1-[(3,4-dimethyl-5-oxo-2H-furan-2-yl)oxymethylene]-3-thiazol-2-yl-4,8b-dihydro-3aH-indeno[2,1-b]pyrrol-2-one] here?
The IC50 was 11.1 nM.

How did the IC50 turn out when `CC(=O)N1C(=O)/C(=C/OC2OC(=O)C(C)=C2C)C2c3ccccc3OC21` (stereo not shown) [Compound I-25] was run?
Its IC50 is 990 nM.

`CC(=O)N1C(=O)/C(=C/OC2C=C(C)C(=O)O2)C2Cc3ccccc3C21` (stereo not shown) [Compound Z1, reference compound] was tested. Which IC50 did it give?
Its IC50 is 110 nM.

`CC(=O)N1C(=O)/C(=C/OC2OC(=O)C(C)=C2C)C2Cc3ccccc3C21` (stereo not shown) [Compound Z1-Me, reference compound] was tested. Which IC50 did it give?
Its IC50 is 30 nM.

How did the IC50 turn out when `CC1=CC(O/C=C2/C(=O)N(c3ccccc3)C3c4ccccc4CC23)OC1=O` (stereo not shown) [Compound Z3, reference compound] was run?
Its IC50 is 2470 nM.

Which IC50 does the source give for `CC1=CC(O/C=C2/C(=O)N(CC#N)C3c4ccccc4CC23)OC1=O` (stereo not shown) [Compound Z4-E, reference compound] here?
Its IC50 is 3710 nM.
